Experiment [1] deals with T1, TrmDEC (Escherichia coli, UniProt P0A873, Y86L).
T1 construct: gene trmD; full-length, N-terminal His tag (pET28b), expressed in E. coli BL21(DE3), tag kept
T1 sequence (P0A873 2-255 Y86L): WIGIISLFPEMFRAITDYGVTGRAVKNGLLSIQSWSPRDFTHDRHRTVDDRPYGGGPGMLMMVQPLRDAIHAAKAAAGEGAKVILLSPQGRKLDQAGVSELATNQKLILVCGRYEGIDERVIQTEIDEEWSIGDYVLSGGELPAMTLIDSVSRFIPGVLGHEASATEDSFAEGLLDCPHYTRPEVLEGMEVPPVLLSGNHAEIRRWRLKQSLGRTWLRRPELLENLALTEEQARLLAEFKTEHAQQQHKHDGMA
The experiment in a line: ITC. In kind it is binding.

Experiment [2] deals with T2, TrmDEC (Escherichia coli, UniProt P0A873, Y86F).
T2 construct: gene trmD; full-length, N-terminal His tag (pET28b), expressed in E. coli BL21(DE3), tag kept
T2 sequence (P0A873 2-255 Y86F): T1 sequence (P0A873 2-255 Y86L) with L85F
Description: ITC. The format is binding.

For one compound, Kd results are on record in article PMC5217690 (The Journal of Biological Chemistry, 2016).

The structures appear in SMILES notation. Substitutions are numbered along the chain they refer to.

For the compound `C[S+](CC[C@H](N)C(=O)O)C[C@H]1O[C@@H](n2cnc3c(N)ncnc32)[C@H](O)[C@@H]1O` (some centres unmarked) [AdoMet], the Kd is 69.9 µM at TrmDEC [1] and 27.9 µM at TrmDEC [2].

In general, Kd refers to a measure of binding affinity in units of concentration. Read a high Kd as lower affinity.
